Experimental data published in PMC8800111 (The Journal of Biological Chemistry, 2021).

What was measured:
Format in all cases: cell-based
[1] = target: proteins of U3A human fibrosarcoma cells (4462 proteins detected) (Homo sapiens, UniProt P13693); details: protein TPT1, U3A cells
[2] = target: proteins of U3A human fibrosarcoma cells (4462 proteins detected) (Homo sapiens, UniProt Q6AI12); details: protein ANKRD40, U3A cells
[3] = target: proteins of U3A human fibrosarcoma cells (4462 proteins detected) (Homo sapiens, UniProt Q9NXR8); details: protein ING3, U3A cells
[4] = target: proteins of U3A human fibrosarcoma cells (4462 proteins detected) (Homo sapiens, UniProt Q9H3P7); details: protein ACBD3; U3A, 10 μM, 2 h
[5] = target: proteins of U3A human fibrosarcoma cells (4462 proteins detected) (Homo sapiens, UniProt Q5VW36); details: protein FOCAD; U3A cells
[6] = target: proteins of U3A human fibrosarcoma cells (4462 proteins detected) (Homo sapiens, UniProt Q92585); details: protein MAML1, U3A cells
[7] = target: proteins of U3A human fibrosarcoma cells (4462 proteins detected) (Homo sapiens, UniProt Q9NZ52); details: protein GGA3; soluble abundance after heat, U3A cells
[8] = target: proteins of U3A human fibrosarcoma cells (4462 proteins detected) (Homo sapiens, UniProt P49441); details: protein INPP1, U3A cells
[9] = target: proteins of U3A human fibrosarcoma cells (4462 proteins detected) (Homo sapiens, UniProt Q9H9Y6); details: protein POLR1B; soluble abundance after heat, U3A cells
[10] = target: proteins of U3A human fibrosarcoma cells (4462 proteins detected) (Homo sapiens, UniProt Q9Y6E2); details: protein BZW2; U3A cells
[11] = target: proteins of U3A human fibrosarcoma cells (4462 proteins detected) (Homo sapiens, UniProt P09874); details: protein PARP1; U3A cells
[12] = target: proteins of U3A human fibrosarcoma cells (4462 proteins detected) (Homo sapiens, UniProt Q6SJ93); details: protein FAM111B; U3A cells
[13] = target: proteins of U3A human fibrosarcoma cells (4462 proteins detected) (Homo sapiens, UniProt P16298); details: protein PPP3CB; U3A cells
[14] = target: proteins of U3A human fibrosarcoma cells (4462 proteins detected) (Homo sapiens, UniProt P46060); details: protein RANGAP1; U3A cells
[15] = target: proteins of U3A human fibrosarcoma cells (4462 proteins detected) (Homo sapiens, UniProt Q9BSJ8); details: protein ESYT1; U3A cells
[16] = target: proteins of U3A human fibrosarcoma cells (4462 proteins detected) (Homo sapiens, UniProt Q9NPD8); details: protein UBE2T; soluble abundance after heat, U3A cells
[17] = target: proteins of U3A human fibrosarcoma cells (4462 proteins detected) (Homo sapiens, UniProt Q08623); details: protein HDHD1, U3A cells
[18] = target: proteins of U3A human fibrosarcoma cells (4462 proteins detected) (Homo sapiens, UniProt Q8WTT2); details: protein NOC3L; U3A cells
[19] = target: proteins of U3A human fibrosarcoma cells (4462 proteins detected) (Homo sapiens, UniProt O75886); details: protein STAM2; U3A cells
[20] = target: proteins of U3A human fibrosarcoma cells (4462 proteins detected) (Homo sapiens, UniProt Q9UBQ5); details: protein EIF3K; U3A cells
[21] = target: proteins of U3A human fibrosarcoma cells (4462 proteins detected) (Homo sapiens, UniProt O75533); details: protein SF3B1; U3A cells
[22] = target: proteins of U3A human fibrosarcoma cells (4462 proteins detected) (Homo sapiens, UniProt P50542); details: protein PEX5, U3A cells
[23] = target: proteins of U3A human fibrosarcoma cells (4462 proteins detected) (Homo sapiens, UniProt P30154); details: protein PPP2R1B; soluble abundance after heat, U3A cells
[24] = target: proteins of U3A human fibrosarcoma cells (4462 proteins detected) (Homo sapiens, UniProt Q9BQP7); details: protein MGME1; soluble abundance after heat, U3A cells
[25] = target: proteins of U3A human fibrosarcoma cells (4462 proteins detected) (Homo sapiens, UniProt Q86V21); details: protein AACS, U3A cells
[26] = target: proteins of U3A human fibrosarcoma cells (4462 proteins detected) (Homo sapiens, UniProt Q9BXY0); details: protein MAK16; soluble abundance after heat, U3A cells
[27] = target: proteins of U3A human fibrosarcoma cells (4462 proteins detected) (Homo sapiens, UniProt Q8WW01); details: protein TSEN15; U3A, 10 μM, 2 h
[28] = target: proteins of U3A human fibrosarcoma cells (4462 proteins detected) (Homo sapiens, UniProt O14646); details: protein CHD1, U3A cells
[29] = target: proteins of U3A human fibrosarcoma cells (4462 proteins detected) (Homo sapiens, UniProt Q9P000); details: protein COMMD9; U3A cells
[30] = target: proteins of U3A human fibrosarcoma cells (4462 proteins detected) (Homo sapiens, UniProt O15164); details: protein TRIM24; U3A cells

Chain of proteins of U3A human fibrosarcoma cells (4462 proteins detected) (Homo sapiens, UniProt Q8WTT2) (Q8WTT2 whole entry): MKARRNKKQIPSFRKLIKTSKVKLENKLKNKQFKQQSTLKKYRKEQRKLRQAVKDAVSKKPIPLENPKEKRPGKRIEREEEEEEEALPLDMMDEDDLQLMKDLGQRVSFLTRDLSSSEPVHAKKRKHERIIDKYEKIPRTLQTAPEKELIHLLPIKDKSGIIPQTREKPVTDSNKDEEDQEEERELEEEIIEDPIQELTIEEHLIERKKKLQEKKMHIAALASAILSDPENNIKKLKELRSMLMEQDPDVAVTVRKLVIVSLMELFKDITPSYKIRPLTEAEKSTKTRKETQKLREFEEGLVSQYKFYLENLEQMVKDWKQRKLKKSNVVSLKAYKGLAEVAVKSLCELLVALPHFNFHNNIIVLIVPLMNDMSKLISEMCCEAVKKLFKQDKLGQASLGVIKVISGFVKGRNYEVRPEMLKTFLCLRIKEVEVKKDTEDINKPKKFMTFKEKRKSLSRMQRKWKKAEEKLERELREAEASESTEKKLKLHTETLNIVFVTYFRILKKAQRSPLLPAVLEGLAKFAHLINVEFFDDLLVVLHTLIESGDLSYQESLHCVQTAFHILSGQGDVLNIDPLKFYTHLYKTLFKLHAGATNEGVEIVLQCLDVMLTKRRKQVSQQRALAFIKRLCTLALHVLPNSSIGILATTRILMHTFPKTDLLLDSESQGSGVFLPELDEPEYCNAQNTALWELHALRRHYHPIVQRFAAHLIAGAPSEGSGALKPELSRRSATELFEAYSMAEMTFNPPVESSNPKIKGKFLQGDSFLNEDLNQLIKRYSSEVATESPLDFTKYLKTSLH
Chain of proteins of U3A human fibrosarcoma cells (4462 proteins detected) (Homo sapiens, UniProt Q9Y6E2) (Q9Y6E2 whole entry): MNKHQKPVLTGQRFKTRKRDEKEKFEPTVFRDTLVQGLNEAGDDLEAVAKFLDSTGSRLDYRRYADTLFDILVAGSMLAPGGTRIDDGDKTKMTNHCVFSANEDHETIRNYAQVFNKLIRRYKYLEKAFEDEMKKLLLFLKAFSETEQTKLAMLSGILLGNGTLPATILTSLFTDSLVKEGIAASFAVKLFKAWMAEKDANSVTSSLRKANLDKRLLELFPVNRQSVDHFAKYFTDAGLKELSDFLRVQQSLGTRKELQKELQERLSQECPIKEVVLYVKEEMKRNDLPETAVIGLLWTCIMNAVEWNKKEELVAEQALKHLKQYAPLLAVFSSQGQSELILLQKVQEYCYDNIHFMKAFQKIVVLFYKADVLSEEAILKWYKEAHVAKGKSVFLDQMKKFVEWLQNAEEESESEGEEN
Chain of proteins of U3A human fibrosarcoma cells (4462 proteins detected) (Homo sapiens, UniProt Q92585) (Q92585 whole entry): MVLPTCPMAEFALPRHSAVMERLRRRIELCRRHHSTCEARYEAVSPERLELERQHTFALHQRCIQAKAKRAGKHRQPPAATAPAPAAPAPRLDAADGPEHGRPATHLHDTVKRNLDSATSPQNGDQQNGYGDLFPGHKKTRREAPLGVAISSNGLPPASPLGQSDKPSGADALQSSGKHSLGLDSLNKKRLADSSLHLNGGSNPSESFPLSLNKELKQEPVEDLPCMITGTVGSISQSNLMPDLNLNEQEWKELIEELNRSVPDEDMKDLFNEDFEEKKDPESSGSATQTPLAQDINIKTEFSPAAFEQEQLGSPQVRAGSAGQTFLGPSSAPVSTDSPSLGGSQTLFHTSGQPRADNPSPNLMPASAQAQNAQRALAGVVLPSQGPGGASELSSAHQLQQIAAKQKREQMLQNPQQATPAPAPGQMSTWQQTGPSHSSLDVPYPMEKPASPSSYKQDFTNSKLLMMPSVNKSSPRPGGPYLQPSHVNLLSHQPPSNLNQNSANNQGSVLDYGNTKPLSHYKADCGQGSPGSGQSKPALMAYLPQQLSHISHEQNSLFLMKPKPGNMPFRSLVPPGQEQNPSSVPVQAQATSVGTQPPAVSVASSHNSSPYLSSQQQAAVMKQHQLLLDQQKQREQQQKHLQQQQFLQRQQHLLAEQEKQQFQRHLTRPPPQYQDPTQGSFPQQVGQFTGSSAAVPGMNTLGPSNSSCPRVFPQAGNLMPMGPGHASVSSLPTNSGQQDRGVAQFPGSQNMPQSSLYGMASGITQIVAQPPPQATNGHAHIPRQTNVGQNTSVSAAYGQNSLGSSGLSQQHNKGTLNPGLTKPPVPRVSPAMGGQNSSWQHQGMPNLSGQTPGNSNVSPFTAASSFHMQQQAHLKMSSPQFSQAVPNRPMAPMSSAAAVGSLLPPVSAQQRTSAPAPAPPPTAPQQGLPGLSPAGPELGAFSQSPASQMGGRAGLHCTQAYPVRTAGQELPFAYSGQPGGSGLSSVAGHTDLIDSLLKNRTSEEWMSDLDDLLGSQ
Chain of proteins of U3A human fibrosarcoma cells (4462 proteins detected) (Homo sapiens, UniProt Q6SJ93) (Q6SJ93 whole entry): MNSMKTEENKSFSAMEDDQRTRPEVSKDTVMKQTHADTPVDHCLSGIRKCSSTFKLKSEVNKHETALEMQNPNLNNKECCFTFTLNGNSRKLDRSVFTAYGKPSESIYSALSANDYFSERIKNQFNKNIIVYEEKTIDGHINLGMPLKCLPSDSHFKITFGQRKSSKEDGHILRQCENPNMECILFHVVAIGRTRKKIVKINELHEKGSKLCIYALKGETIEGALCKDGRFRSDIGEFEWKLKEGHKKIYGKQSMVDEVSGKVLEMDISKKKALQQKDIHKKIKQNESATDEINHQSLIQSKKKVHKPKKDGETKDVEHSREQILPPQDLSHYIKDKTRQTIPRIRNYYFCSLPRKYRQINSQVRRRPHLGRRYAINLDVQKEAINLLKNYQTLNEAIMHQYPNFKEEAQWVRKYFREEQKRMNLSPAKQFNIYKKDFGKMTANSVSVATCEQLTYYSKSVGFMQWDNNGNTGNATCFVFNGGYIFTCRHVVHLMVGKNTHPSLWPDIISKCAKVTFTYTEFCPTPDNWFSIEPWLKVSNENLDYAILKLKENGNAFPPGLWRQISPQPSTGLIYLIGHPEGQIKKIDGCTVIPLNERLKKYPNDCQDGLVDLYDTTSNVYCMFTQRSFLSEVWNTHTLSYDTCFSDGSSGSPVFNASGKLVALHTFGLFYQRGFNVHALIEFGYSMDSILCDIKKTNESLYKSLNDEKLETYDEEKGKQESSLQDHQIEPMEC
Chain of proteins of U3A human fibrosarcoma cells (4462 proteins detected) (Homo sapiens, UniProt Q8WW01) (Q8WW01 whole entry): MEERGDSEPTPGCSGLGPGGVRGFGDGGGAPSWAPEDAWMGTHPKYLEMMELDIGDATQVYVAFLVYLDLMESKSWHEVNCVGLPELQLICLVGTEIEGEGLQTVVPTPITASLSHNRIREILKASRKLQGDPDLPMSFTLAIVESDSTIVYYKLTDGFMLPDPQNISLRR
Chain of proteins of U3A human fibrosarcoma cells (4462 proteins detected) (Homo sapiens, UniProt O14646) (O14646 whole entry): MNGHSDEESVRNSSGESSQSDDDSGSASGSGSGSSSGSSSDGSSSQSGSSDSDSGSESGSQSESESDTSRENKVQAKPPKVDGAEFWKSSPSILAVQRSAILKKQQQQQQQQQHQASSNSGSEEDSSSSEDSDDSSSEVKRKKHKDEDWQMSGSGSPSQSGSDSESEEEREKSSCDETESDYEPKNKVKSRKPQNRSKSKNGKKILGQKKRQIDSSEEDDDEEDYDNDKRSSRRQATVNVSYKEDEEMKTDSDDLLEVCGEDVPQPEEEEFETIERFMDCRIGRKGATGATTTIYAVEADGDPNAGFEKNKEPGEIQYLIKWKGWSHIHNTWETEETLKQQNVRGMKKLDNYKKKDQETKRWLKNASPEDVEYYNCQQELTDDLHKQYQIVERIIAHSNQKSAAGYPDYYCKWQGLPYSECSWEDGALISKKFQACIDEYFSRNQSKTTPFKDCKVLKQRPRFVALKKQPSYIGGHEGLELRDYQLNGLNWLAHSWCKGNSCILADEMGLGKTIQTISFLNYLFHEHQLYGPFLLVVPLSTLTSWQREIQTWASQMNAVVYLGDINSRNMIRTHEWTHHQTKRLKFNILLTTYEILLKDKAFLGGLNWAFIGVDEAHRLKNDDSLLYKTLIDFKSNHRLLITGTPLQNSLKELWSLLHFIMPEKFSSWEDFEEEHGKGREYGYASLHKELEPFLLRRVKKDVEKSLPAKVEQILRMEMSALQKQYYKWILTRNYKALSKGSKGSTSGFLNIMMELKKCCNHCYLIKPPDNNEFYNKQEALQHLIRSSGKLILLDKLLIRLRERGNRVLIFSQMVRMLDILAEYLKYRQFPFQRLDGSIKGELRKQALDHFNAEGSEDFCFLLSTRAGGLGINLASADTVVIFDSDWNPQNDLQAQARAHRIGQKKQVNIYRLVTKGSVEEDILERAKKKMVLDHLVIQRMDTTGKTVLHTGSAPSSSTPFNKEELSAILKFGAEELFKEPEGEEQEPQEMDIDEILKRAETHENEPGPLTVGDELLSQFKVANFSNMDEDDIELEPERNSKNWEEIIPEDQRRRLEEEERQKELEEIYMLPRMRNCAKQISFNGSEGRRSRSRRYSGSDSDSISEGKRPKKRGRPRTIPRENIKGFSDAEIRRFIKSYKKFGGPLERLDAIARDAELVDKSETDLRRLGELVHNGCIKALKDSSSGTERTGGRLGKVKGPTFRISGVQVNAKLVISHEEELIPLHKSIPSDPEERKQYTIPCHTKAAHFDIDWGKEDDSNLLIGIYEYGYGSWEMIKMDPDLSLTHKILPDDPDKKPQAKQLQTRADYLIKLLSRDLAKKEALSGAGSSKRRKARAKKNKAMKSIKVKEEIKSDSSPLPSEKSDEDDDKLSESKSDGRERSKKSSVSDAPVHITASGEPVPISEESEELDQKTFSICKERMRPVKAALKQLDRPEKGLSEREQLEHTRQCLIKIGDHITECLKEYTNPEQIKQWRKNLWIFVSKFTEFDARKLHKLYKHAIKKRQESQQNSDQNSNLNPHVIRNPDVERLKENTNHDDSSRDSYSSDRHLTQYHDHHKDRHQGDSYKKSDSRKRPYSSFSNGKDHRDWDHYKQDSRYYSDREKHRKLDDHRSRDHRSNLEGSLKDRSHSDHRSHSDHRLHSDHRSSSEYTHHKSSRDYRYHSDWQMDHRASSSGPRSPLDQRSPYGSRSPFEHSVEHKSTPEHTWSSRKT
Chain of proteins of U3A human fibrosarcoma cells (4462 proteins detected) (Homo sapiens, UniProt Q9NPD8) (Q9NPD8 whole entry): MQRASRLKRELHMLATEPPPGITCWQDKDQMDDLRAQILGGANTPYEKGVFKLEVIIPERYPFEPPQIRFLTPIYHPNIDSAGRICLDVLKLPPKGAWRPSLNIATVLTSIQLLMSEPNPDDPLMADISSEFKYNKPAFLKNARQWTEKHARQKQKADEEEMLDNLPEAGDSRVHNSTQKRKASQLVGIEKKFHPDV

## CCc1nc(N)nc(N)c1-c1ccc(Cl)cc1 [pyrimethamine]
[1]
  Log2 (PYR/DMSO): -0.05
[2]
  Log2 (PYR/DMSO): -0.04
[3]
  Log2 (PYR/DMSO): -0.04
[4]
  Log2 (PYR/DMSO), ACBD3: 0.24
[5]
  Log2 (PYR/DMSO): 0.20
[6]
  Log2 (PYR/DMSO): -0.04
[7]
  Log2 (PYR/DMSO): 0.14
[8]
  Log2 (PYR/DMSO): -0.04
[9]
  Log2 (PYR/DMSO): 0.13
[10]
  Log2 (PYR/DMSO): 0.19
[11]
  Log2 (PYR/DMSO): 0.19
[12]
  Log2 (PYR/DMSO): 0.20
[13]
  Log2 (PYR/DMSO): 0.19
[14]
  Log2 (PYR/DMSO): 0.18
[15]
  Log2 (PYR/DMSO): 0.20
[16]
  Log2 (PYR/DMSO): 0.13
[17]
  Log2 (PYR/DMSO): -0.04
[18]
  Log2 (PYR/DMSO): 0.16
[19]
  Log2 (PYR/DMSO): 0.19
[20]
  Log2 (PYR/DMSO): 0.20
[21]
  Log2 (PYR/DMSO): 0.16
[22]
  Log2 (PYR/DMSO): -0.03
[23]
  Log2 (PYR/DMSO): 0.15
[24]
  Log2 (PYR/DMSO): 0.14
[25]
  Log2 (PYR/DMSO): -0.04
[26]
  Log2 (PYR/DMSO): 0.14
[27]
  Log2 (PYR/DMSO), TSEN15: -0.15
[28]
  Log2 (PYR/DMSO): -0.04
[29]
  Log2 (PYR/DMSO): 0.16
[30]
  Log2 (PYR/DMSO): 0.16
